Results: PMC4211885 (PLoS ONE, 2014)
Entries after “also recorded” stand apart in the source; their conditions may differ. Read-outs that look alike come from different tables or passages of the source.

Legend:
OA/TAMac receptor [1] = biological target: T1, OA/TAMac receptor (Macrobrachium rosenbergii, UniProt D9U2B9); assay: Agonist-evoked direct-current (ID) in Xenopus oocytes injected with OA/TAMac cRNA, two-electrode voltage clamp; assay type: cell-based; conditions: for Amplitude of agonist evoked ID relative to octopamine-evoked current: all agonists at 50 µM, within single oocytes
T1 sequence (D9U2B9 entry or part of it): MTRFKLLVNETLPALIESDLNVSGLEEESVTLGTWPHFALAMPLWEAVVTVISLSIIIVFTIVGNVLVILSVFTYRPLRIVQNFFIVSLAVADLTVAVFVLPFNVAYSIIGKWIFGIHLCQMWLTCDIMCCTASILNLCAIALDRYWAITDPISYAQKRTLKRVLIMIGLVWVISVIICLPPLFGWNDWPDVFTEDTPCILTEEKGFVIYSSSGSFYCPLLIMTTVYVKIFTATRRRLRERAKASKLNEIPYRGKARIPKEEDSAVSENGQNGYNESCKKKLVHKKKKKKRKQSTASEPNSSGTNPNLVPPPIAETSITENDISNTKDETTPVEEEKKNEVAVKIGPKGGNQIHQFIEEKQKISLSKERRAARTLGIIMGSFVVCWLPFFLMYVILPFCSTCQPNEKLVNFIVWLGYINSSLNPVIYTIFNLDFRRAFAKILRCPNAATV
From the text: We used Xenopus oocytes to express the prawn OA/TAMac receptor by injection of synthetic cRNA. The injection of foreign RNA into Xenopus oocytes typically induces the expression of multiple native chloride and potassium channels. Ligand evoked currents resulting from modulation of these channels have been used extensively in the characterization of heterologously expressed GPCRs. Oocytes are typically voltage clamped at a constant membrane potential around −60 mV and deviations in holding potential are measured. We refer to currents measured in this way as direct-currents (ID) (after) in order to distinguish them from the voltage-evoked transient current (ICl-T) described later.
Both flow rate and pulse duration were precisely controlled and comparisons were made relative to currents within single oocytes.
To characterize the dose dependence of ID, series of single transmitters were applied to different individual oocytes injected with OA/TAMac. Oocytes were voltage clamped at −60 mV and tyramine, (+/−)-octopamine, or dopamine were applied using 30 second perfusion-switched applications (see methods for more details).
(§1) Recordings were performed 1–3 days post-injection at room temperature (20–22°C). Currents were recorded under two-electrode voltage clamp using an Axoclamp 900a amplifier (Molecular Devices LLC, CA USA). A digidata 1440a analog to digital converter was used in conjunction with pCLAMP 10 software (Molecular Devices) for data acquisition and to generate voltage commands. For each step protocol or chemical application data were typically sampled at 5 KHz and filtered digitally at 1 KHz. For the duration of each experiment the current was also continuously sampled at 1 kHz using a separate minidigi 1A digitizer (Molecular Devices). Glass microelectrodes were pulled from filamented 1.2 mm thin wall borosilicate glass (World Precision Instruments, Sarasota, FL) using a Sutter Instruments P-97 puller. They were filled with 3 M KCl and had resistances of 0.8–2.0 MΩ. A silver chloride pellet immersed in 3 M KCl and connected to the bath via a 3% agar bridge made with 3 M KCl was used as the reference electrode.
Oocytes were continuously perfused at 1.5 mL/min either with ND 96 or test compounds dissolved in ND 96. Two types of application were used over the course of this study, a perfusion-switch or a focal application. In all cases solutions were delivered through a gravity fed system and switched using a computer controlled bank of pinch valves. Flow rate was regulated with a manual screw-type pinch valve.
For focal application a triple barrel pipette with three parallel independently switched channels was positioned about 1 mm from the surface of the oocyte, up-stream of a cross flow, at an approximate angle of 45 degrees (schematic shown in Fig. S8). Drugs were focally applied during continuous perfusion with ND 96.
(§2) In experiments where more than three drugs or concentrations were tested a precisely controlled 30 s perfusion-switch was used. Up to eight channels were connected to the bath via an 8-way manifold. There was an approximately 6–7 s delay for solutions to traverse the dead volume between the manifold and the bath.

[2] = tested on: CFTR conductance (intracellular cAMP); assay: cAMP detection by whole oocyte (CFTR) conductance in oocytes co-expressing CFTR and OA/TAMac; assay type: cell-based, Xenopus laevis; conditions: FSK at 50 µM
From the text: It is also unlikely that the effects of tyramine at high concentration result from an increase in cAMP. It is common that octopaminergic GPCRs can couple through the canonical Gαs/cAMP pathway so we used co-expression of the Cystic Fibrosis Trans-membrane Conductance Regulator (CFTR) as a means of testing for increases in cAMP (see methods for more detail) [60]–[63].
As a means of detecting rises in intracellular cAMP levels we tested oocytes co-expressing the CFTR channel and OA/TAMac. Heterologously expressed CFTR can be used as an extremely sensitive assay for intracellular cAMP in Xenopus oocytes. CFTR mediates a chloride-selective leak conductance that is activated by increases in intracellular cAMP [63]. Activity of CFTR can thus be used to indicate whether changes in cAMP correspond with ligand application [60]–[62]. Whole oocyte conductance was monitored using a step protocol and calculated from I/V plots. The command voltage was stepped from the holding potential to various levels (−10 mV to −55 mV in −5 mV increments) for 150 ms. The steady state current during each step was plotted against the command voltage and fit to a line using Clampfit 10 software (Fig. S7A). The slope of the line was taken as the conductance. To minimize the magnitude of the holding current between drug applications, oocytes expressing CFTR were typically held at −20 mV which is close to the typical chloride reversal potential. This was confirmed by the fact that the direct-current evoked by forskolin could appear inward or outward at −20 mV. Oocytes expressing either OA/TAMac alone or OA/TAMac and CFTR typically had resting membrane potentials between −20 mV and −30 mV (mean of −26±5 mV calculated from oocytes in Fig. S7) due to increased expression of endogenous chloride currents.
(A) The measurement of whole oocyte conductance was done by plotting steady state current against the command voltage recorded during a step protocol. It is defined as the slope (I/V) of the linear least squares regression line. In the example shown tyramine (TA) causes no apparent change in whole oocyte conductance. Octopamine (OA) causes a small change compared to the adenylate cyclase activator forskolin (FSK). […] These cumulative data are from 20 OA/TAMac and CFTR-injected oocytes and 6 OA/TAMac -only injected oocytes. Conductance was measured as shown in A. Not all compounds were tested in all oocytes. Each response is treated as an independent sample. Concentrations of OA and TA were at 100 µM or 1000 µM, FSK was at 50 µM. Some points obtained at 3 minutes were grouped with the 4 minute responses. (C) The change in conductance (Δg) occurring within oocytes as determined by the difference between baseline and the indicated time points post-application of compound. […]

OA/TAMac receptor [3] = biological target: T1, OA/TAMac receptor; assay: Antagonist block of ID evoked by 50 µM octopamine in OA/TAMac-injected oocytes; assay type: cell-based
Experimental: as §1, §2

Uninjected oocytes = assay: Direct-current response of uninjected oocytes (control); assay type: cell-based, Xenopus laevis; conditions: n = 5
Experimental: We first tested receptor-injected oocytes for the occurrence of a response to biogenic amines. Applications of tyramine, octopamine, or dopamine produced an inward ID, typically ranging between 50 nA and 500 nA, under a constant holding potential of −60 mV. […] The amplitude of tyramine evoked ID at concentrations below 10 µM was greater than octopamine or dopamine within the same oocyte (Figs. 2A and S2). […] Instead it would rise and then begin to decline prior to the removal of agonist (dotted line). However, at high concentrations, above 100 µM, ID appeared to approach a stable plateau (Fig. 2B).
as §1
Supplementary file pone.0111314.s001.tif: Figure S1 Direct-current (ID) responses are specifically evoked by agonists in oocytes injected with OA/TAMac only. […] The trace is representative of an experimental set of 5 oocytes. Additional uninjected oocytes were tested with various experimental sets throughout the course of this study. (B) A typical preliminary test of agonist sensitivity. Injection of OA/TAMac cRNA alone is sufficient to confer sensitivity to OA. […] Applications are approximately 30 seconds in the upper trace. (C) The response of clonidine (CN), synephrine (SN), and OA within a single OA/TAMac injected oocyte. […] All drugs are applied for 30 seconds each as indicated by black rectangles. Agonist evoked currents are measured within oocytes relative to the octopamine response at 50 µM. The comparison is made to OA because the amplitude of the tyramine response becomes small at concentrations above 10 µM. This is due to a mechanistically undefined process not seen with any other agonist we tested. Note that TA is the first compound applied to a naïve oocyte in this example. […] (TIF) Click here for additional data file.

[4] = Solubility limit in ND 96 when preparing test solutions; assay type: physicochemical; conditions: ND 96, from methanol stock
Experimental: Compounds were obtained from Sigma and dissolved in ND96 or calcium free ND 96 (96 mM NaCl, 2 mM KCl, 5 mM MgCl2, 0.1 mM EGTA, and 5 mM HEPES, pH 7.6), unless stated otherwise. […] SQ-22536 was prepared as a 0.1 M stock in water. Yohimbine was dissolved in acidic ND 96 to 1 mM, before being serially diluted at pH 7.6. Forskolin was prepared as a 0.05 M stock in DMSO. Thapsigargin was prepared as a 0.01 M stock in DMSO. (−)-Quinpirol was made as a 0.01 M stock in ND96 and stored in aliquots at −20°C. […] For all antagonists serial dilutions were made in ND 96 containing 50 µM octopamine and applied as a mixture.

[5] = antagonist applied as mixture with 50 µM octopamine, 30 second perfusion-switch, −60 mV, estimated graphically, read-out: IC50 for block of octopamine-evoked ID

CNCC(O)c1ccc(O)cc1 (racemic) [(+/−)-synephrine]
Amplitude of agonist evoked ID relative to octopamine-evoked current (OA/TAMac receptor [1]; 30 second perfusion-switch): smaller currents than octopamine or β-PEA

CCCN1CCC[C@@H]2Cc3n[nH]cc3C[C@H]21 [(−)-quinpirole]
Amplitude of agonist evoked ID relative to octopamine-evoked current (OA/TAMac receptor [1]; 30 second perfusion-switch): smaller currents than octopamine or β-PEA | Amplitude of agonist evoked ID relative to octopamine-evoked current (OA/TAMac receptor [1]; 30 second perfusion-switch, listed as quinpirole): produces a response in injected oocytes and not in uninjected oocytes

Clc1cccc(Cl)c1N=C1NCCN1 [Clonidine]
Amplitude of agonist evoked ID relative to octopamine-evoked current (OA/TAMac receptor [1]; 30 second perfusion-switch): no visible response

C=C[C@@]1(C)CC(=O)[C@]2(O)[C@@]3(C)[C@@H](O)CCC(C)(C)[C@@H]3[C@H](O)[C@H](OC(C)=O)[C@@]2(C)O1 [FSK, forskolin]
Evoked whole oocyte conductance [2]: significantly larger conductance than baseline or TA

CN1CCc2cc(Cl)c(O)cc2[C@@H](c2ccccc2)C1 [SCH-23390]
IC50 (OA/TAMac receptor [3]; [5]): ~9.6 µM

Nc1ncnc2c1ncn2C1CCCO1 (stereo not drawn) [SQ-22536]
Effect of adenylate cyclase inhibitor on amine evoked ID (OA/TAMac receptor [1]; tyramine n = 3, octopamine n = 6): no apparent effect; also recorded: no obvious effect

NCCc1ccc(O)c(O)c1 [dopamine]
Response of uninjected oocytes (Uninjected oocytes): no response | Response of uninjected oocytes (Uninjected oocytes; listed as DA): do not respond | ID response amplitude (mean ± s.d.) (OA/TAMac receptor [1]; 10 µM, 10 second focal application, −60 mV, OA/TAMac and CFTR co-injected, n = 11 oocytes): 46±31 nA | EC50 (OA/TAMac receptor [1]; 30 second perfusion-switch, voltage clamped at −60 mV, approximate, estimated graphically from plot, read-out: EC50 of transmitter evoked direct-current (ID), normalized I/Imax): ~63 µM | Concentration at which evoked inward currents became visible/apparent (OA/TAMac receptor [1]; 30 second perfusion-switched applications, −60 mV): around 1 µM | Spearman rank-order correlation (rS) between rise rate and peak amplitude of evoked ID (OA/TAMac receptor [1]; all responses of the concentration series of Figure 3C): 0.97

NC1=NCC2c3ccccc3Cc3ccccc3N12 (stereo not drawn) [epinastine]
IC50 (OA/TAMac receptor [3]; [5]): ~3.7 µM

O=C(CCCN1CCC(O)(c2ccc(Cl)cc2)CC1)c1ccc(F)cc1 [haloperidol]
Limit of solubility [4]: could not be tested at 100 µM because of its limit of solubility

NCCc1c[nH]cn1 [histamine]
Amplitude of agonist evoked ID relative to octopamine-evoked current (OA/TAMac receptor [1]; 30 second perfusion-switch): no response or minimal response | Amplitude of agonist evoked ID relative to octopamine-evoked current (OA/TAMac receptor [1]; 30 second perfusion-switch, listed as Histamine): minimal response

Cc1ccc(N(CC2=NCCN2)c2cccc(O)c2)cc1 [phentolamine]
IC50 (OA/TAMac receptor [3]; [5]): ~0.98 µM

C/C=C(/C)C(=O)O[C@H]1C(C)=C2[C@H]([C@@H]1OC(=O)CCCCCCC)[C@@](C)(OC(C)=O)C[C@H](OC(=O)CCC)[C@@]1(O)[C@H]2OC(=O)[C@@]1(C)O [thapsigargin]
Effect of pre-incubation on tyramine-induced ID waveform (OA/TAMac receptor [1]; 1.7 µM in calcium-free ND 96 for three hours, n = 2): no apparent effect on the tyramine induced plateau

COC(=O)[C@@H]1[C@H]2C[C@H]3c4[nH]c5ccccc5c4CCN3C[C@@H]2CC[C@@H]1O [yohimbine]
IC50 (OA/TAMac receptor [3]): ~0.48 µM

NCCc1ccccc1 [β-phenylethylamine]
Amplitude of agonist evoked ID relative to octopamine-evoked current (OA/TAMac receptor [1]; 30 second perfusion-switch): comparable or greater amplitude than octopamine
